The results in this text go back to patent US10350210B2, “EGFR and ALK dual inhibitor” (PRECEDO PHARMACEUTICALS CO., LTD, priority 2015, dated 2019).

Assay [1] has as its system A549. Description: Effect on cell apoptosis (Western Blot, PARP and Caspase 3 cleavage), A549. Type of assay: cell-based, human. The conditions noted are these: A549 (wild-type EGFR), 24 hours. The text has this:
In order to confirm whether the death of cells is through apoptosis or necrosis after administration of drugs, non-small cell lung cancer cell A549 (expressing wild-type EGFR gene), non-small cell lung cancer cell line H1975 (expressing EGFR L858R/T790M double mutant gene), non-small cell lung cancer cell line H3255 (expressing EGFR L858R mutant gene), non-small cell lung cancer cell line H3122 (expressing ALK gene) cell line, and non-small cell lung cancer cell line PC-9 (expressing EGFR delE746_A750 mutant gene) were tested for effect of Compound 1 on cleavage of poly ADP-ribose polymerase PARP which is a DNA repair enzyme and Caspase 3, which were closely related to cell apoptosis. […] Western Blot was used to detect the effect of various concentrations of drugs at various time points on cleavage of poly ADP-ribose polymerase PARP which is a DNA repair enzyme and Caspase 3.

Another assay relates to HCC827. Description: Growth of cancer cells (Cell Titer-Glo viability), HCC827. The assay is classed as cell-based. To be noted: Homo sapiens; HCC827 (mutant EGFR del19), 72 hrs. An outline of the steps: (§1)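 Mouse BaF3 cells retrovirally transduced with human kinase fused to N-terminal TEL fragment, then IL-3 withdrawn so proliferation depends on the transgene. HCC827 carries EGFR del19 and NCI-H3255 EGFR L858R. Viable cells were quantified by CellTiter-Glo chemiluminescence on a microplate reader.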

The subject of assay [2] is A549. Description: Effect on cell cycle (PI staining, flow cytometer), A549. Type of assay: cell-based, human. To be noted: A549 (wild-type EGFR), 24 hours and 48 hours. The text has this: In order to study which growth phase the cell was halted after administration of the drugs, five cell lines including non-small cell lung cancer cell line A549 (expressing wild-type EGFR gene), non-small cell lung cancer cell line H1975 (expressing EGFR L858R/T790M double mutant gene), non-small cell Lung cancer cell line PC-9 (expressing EGFR delE746_A750 mutant gene), non-small cell lung cancer cell line H3255 (expressing EGFR L858R mutant gene) and non-small cell lung cancer cell NCI-H3122 (expressing ALK gene) were tested for effect of Compound 1 on cell cycle distribution. Two cell lines including non-small cell lung cancer cell NCI-H3122 (expressing ALK gene) and non-small cell lung cancer cell H1975 (expressing EGFR L858R/T790M double mutant gene) were tested for effect of Compound 10 on cell cycle distribution. […]

For a further assay, the system named is BaF3-FL-EGFR-Del19. Description: Cell growth (Cell Titer-Glo viability), BaF3-FL-EGFR-Del19. To be noted: Mus musculus; BaF3-FL-EGFR-Del19 (EGFR delE746_A750 mutant kinase), 72 hrs. Type of assay: cell-based. Put shortly:
as §1

In another assay the test system is BaF3-FL-EGFR-T790M-L858R. Description: Cell growth (Cell Titer-Glo viability), BaF3-FL-EGFR-T790M-L858R. Type of assay: cell-based. To be noted: Mus musculus; BaF3-FL-EGFR-T790M-L858R (EGFR T790M/L858R mutant kinase), 72 hrs. Here is the method:
By testing the effect of the novel kinase inhibitors on the proliferation of cancer cells, the selectivity of the compounds of the present disclosure in inhibiting the proliferation of cancer cells was further assessed. […]
The number of viable cells was determined quantitatively by a microplate reader using Cell Titer-Glo® (Promega, US) chemiluminescence cell viability assay kit.

For `C=CC(=O)Nc1cc(Nc2ncc(Cl)c(Nc3ccccc3S(=O)(=O)C(C)C)n2)c(OC)cc1N1CCN(CC)CC1` [Compound 1, N-(5-(5-chloro-4-(2-(isopropylsulfonyl)phenylamino)pyrimidin-2-ylamino)-2-(4-ethylpiperazin-1-yl)-4-methoxyphenyl)acrylamide], the “cleavage of PARP or Caspase 3 (apoptosis)” value in the assay on A549 [1] is “not observed”. For the same molecule, the GI50 with HCC827 was 3 nM; in the assay on BaF3-FL-EGFR-Del19, < 0.3 nM. The “effect on cell cycle” value with A549 [2] is reported as “certain effect”.
For the molecule `C=CC(=O)Nc1cc(Nc2ncc(Cl)c(Nc3ccccc3S(=O)(=O)C(C)C)n2)c(OC)cc1N1CCCN(C)CC1` [Compound 10, N-(5-(5-chloro-4-(2-(isopropylsulfonyl)phenylamino)pyrimidin-2-ylamino)-4-methoxy-2-(4-methyl-1,4-homopiperazin-1-yl)phenyl)acrylamide], the GI50 in the assay with BaF3-FL-EGFR-T790M-L858R is 2 nM.
